Test results as given in patent US20200016159A1, “N3-CYCLICALLY SUBSTITUTED THIENOURACILS AND USE THEREOF” (Bayer Aktiengesellschaft, priority 2016, published 2020).

What follows are compounds tested against T1, human adenosine A2b receptor (Homo sapiens, UniProt P29275) (assay: Cellular in vitro reporter gene test for A2b receptor activity (antagonism of NECA)). Conditions: recombinant CHO-K1 cells, CRE-luciferase reporter, co-incubation with EC50 concentration of NECA, 3 hours.
T1 sequence (P29275 1-332): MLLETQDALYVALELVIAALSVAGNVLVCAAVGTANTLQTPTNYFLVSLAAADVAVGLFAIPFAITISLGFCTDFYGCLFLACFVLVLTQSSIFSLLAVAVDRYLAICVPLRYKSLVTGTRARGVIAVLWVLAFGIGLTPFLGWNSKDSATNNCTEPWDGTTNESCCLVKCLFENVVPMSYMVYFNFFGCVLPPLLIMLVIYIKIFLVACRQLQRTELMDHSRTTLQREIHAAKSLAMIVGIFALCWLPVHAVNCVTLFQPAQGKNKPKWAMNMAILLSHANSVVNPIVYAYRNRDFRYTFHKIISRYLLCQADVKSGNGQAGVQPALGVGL
Format: cell-based
Design: expressed in transfected cells; host or cells: CHO-K1 (Chinese hamster ovary) with CRE-luciferase reporter
Method in brief: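 CHO-K1 cells expressing recombinant human A2b receptor plus a CRE-driven firefly luciferase reporter. Compounds co-incubated with NECA at its same-day EC50 concentration; luminescence read 3 hours after NECA addition. IC50 values, sometimes means of several determinations rounded to two significant figures.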

Row | Compound | IC50 [nM]
1 | CO[C@H]1C[C@@H](n2c(=O)c3c(C)c(CN4CCNC(=O)C4=O)sc3n(CCC(F)(F)F)c2=O)C1 [Example 157, 6-[(2,3-Dioxopiperazin-1-yl)methyl]-3-(cis-3-methoxycyclobutyl)-5-methyl-1-(3,3,3-trifluoropropyl)thieno[2,3-d]pyrimidine-2,4(1H,3H)-dione] | 63
2 | CCCCn1c(=O)n(C2CC2)c(=O)c2c(C)c(CN3CCNC3=O)sc21 [Example 3, 1-Butyl-3-cyclopropyl-5-methyl-6-[(2-oxoimidazolidin-1-yl)methyl]thieno[2,3-d]pyrimidine-2,4(1H,3H)-dione] | 6.9
3 | Cc1c(CN2CCNC2=O)sc2c1c(=O)n(C1CC1C)c(=O)n2CCCC(F)(F)F (single isomer, unassigned) [Example 244, 5-Methyl-3-(2-methylcyclopropyl)-6-[(2-oxoimidazolidin-1-yl)methyl]-1-(4,4,4-trifluorobutyl)thieno[2,3-d]pyrimidine-2,4(1H,3H)-dione] | 3.3
4 | CO[C@H]1C[C@@H](n2c(=O)c3c(C)c(Cn4nc[nH]c4=O)sc3n(CCC(F)(F)F)c2=O)C1 [Example 158, 3-(cis-3-Methoxycyclobutyl)-5-methyl-6-[(5-oxo-4,5-dihydro-1H-1,2,4-triazol-1-yl)methyl]-1-(3,3,3-trifluoropropyl)thieno[2,3-d]pyrimidine-2,4(1H,3H)-dione] | 180
5 | COC(=O)N=C1NCCN1Cc1sc2c(c1C)c(=O)n(C1CCCC1)c(=O)n2CCC(F)(F)F [Example 186, Methyl [1-{[3-cyclopentyl-5-methyl-2,4-dioxo-1-(3,3,3-trifluoropropyl)-1,2,3,4-tetrahydrothieno[2,3-d]pyrimidin-6-yl]methyl}imidazolidin-2-ylidene]carbamate] | 7.9
6 | COC(=O)N=C1NCCN1Cc1sc2c(c1C)c(=O)n(C1CC3(CCC3)C1)c(=O)n2CCC(F)(F)F [Example 176, Methyl [1-{[5-methyl-2,4-dioxo-3-(spiro[3.3]hept-2-yl)-1-(3,3,3-trifluoropropyl)-1,2,3,4-tetrahydrothieno[2,3-d]pyrimidin-6-yl]methyl}imidazolidin-2-ylidene]carbamate] | 4
7 | Cc1c(CN2CCNC2=NC#N)sc2c1c(=O)n(C1CC1C)c(=O)n2CCOC(F)(F)F (single isomer, unassigned) [Example 265, [1-({5-Methyl-3-(2-methylcyclopropyl)-2,4-dioxo-1-[2-(trifluoromethoxy)ethyl]-1,2,3,4-tetrahydrothieno[2,3-d]pyrimidin-6-yl}methyl)imidazolidin-2-ylidene]cyanamide] | 1.3
8 | Cc1c(CN2CCNC2=O)sc2c1c(=O)n(C1CC1C)c(=O)n2CCSC(F)(F)F (racemic) [Example 279, 5-Methyl-3-(2-methylcyclopropyl)-6-[(2-oxoimidazolidin-1-yl)methyl]-1-{2-[(trifluoromethyl)sulfanyl]ethyl}thieno[2,3-d]pyrimidine-2,4(1H,3H)-dione] | 1.6
9 | COCCn1c(=O)n(C2CC2OC)c(=O)c2c(C)c(CN3CCNC3=O)sc21 (racemic) [Example 306, 3-(2-Methoxycyclopropyl)-1-(2-methoxyethyl)-5-methyl-6-[(2-oxoimidazolidin-1-yl)methyl]thieno[2,3-d]pyrimidine-2,4(1H,3H)-dione] | 16
10 | Cc1c(Cn2nc[nH]c2=O)sc2c1c(=O)n(C1CC1)c(=O)n2CCCCF [Example 198, 3-Cyclopropyl-1-(4-fluorobutyl)-5-methyl-6-[(5-oxo-4,5-dihydro-H-1,2,4-triazol-1-yl)methyl]thieno[2,3-d]pyrimidine-2,4(1H,3H)-dione] | 190
11 | Cc1c(Cn2nc[nH]c2=O)sc2c1c(=O)n(C1CC1C)c(=O)n2CCOC(F)(F)F (single isomer, unassigned) [Example 278, 5-Methyl-3-(2-methylcyclopropyl)-6-[(5-oxo-4,5-dihydro-1H-1,2,4-triazol-1-yl)methyl]-1-[2-(trifluoromethoxy)ethyl]thieno[2,3-d]pyrimidine-2,4(1H,3H)-dione] | 1.6
12 | Cc1c(Cn2nc[nH]c2=O)sc2c1c(=O)n(C1(C)CC1)c(=O)n2C[C@@H]1CCCO1 [Example 84, 5-Methyl-3-(1-methylcyclopropyl)-6-[(5-oxo-4,5-dihydro-1H-1,2,4-triazol-1-yl)methyl]-1-[(2S)-tetrahydrofuran-2-ylmethyl]thieno[2,3-d]pyrimidine-2,4(1H,3H)-dione] | 460
13 | CCOCCn1c(=O)n(C2CC2)c(=O)c2c(C)c(Cn3nc[nH]c3=O)sc21 [Example 32, 3-Cyclopropyl-1-(2-ethoxyethyl)-5-methyl-6-[(5-oxo-4,5-dihydro-1H-1,2,4-triazol-1-yl)methyl]thieno[2,3-d]pyrimidine-2,4(1H,3H)-dione] | 430
14 | Cc1c(Cn2cc[nH]c2=O)sc2c1c(=O)n(C1CC1)c(=O)n2CCC(F)(F)F [Example 14, 3-Cyclopropyl-5-methyl-6-[(2-oxo-2,3-dihydro-1H-imidazol-1-yl)methyl]-1-(3,3,3-trifluoropropyl)thieno[2,3-d]pyrimidine-2,4(1H,3H)-dione] | 3.7
15 | COC(=O)N=C1NCCN1Cc1sc2c(c1C)c(=O)n(C1CC(C)(C)C1)c(=O)n2CCC(F)(F)F [Example 166, Methyl [1-{[3-(3,3-dimethylcyclobutyl)-5-methyl-2,4-dioxo-1-(3,3,3-trifluoropropyl)-1,2,3,4-tetrahydrothieno[2,3-d]pyrimidin-6-yl]methyl}imidazolidin-2-ylidene]carbamate] | 4.7
16 | Cc1c(CN2CCNC2=O)sc2c1c(=O)n(C1CC1C)c(=O)n2C[C@H]1CCCO1 (single isomer, unassigned) [Example 287] | 2.8
17 | COCCn1c(=O)n(C2CC2C(F)(F)F)c(=O)c2c(C)c(CN3CCNC3=O)sc21 (racemic) [Example 294, 1-(2-Methoxyethyl)-5-methyl-6-[(2-oxoimidazolidin-1-yl)methyl]-3-[2-(trifluoromethyl)cyclopropyl]thieno[2,3-d]pyrimidine-2,4(1H,3H)-dione] | 20
18 | Cc1c(CN2CCNC2=O)sc2c1c(=O)n(C1(C)CC1)c(=O)n2CC1CCC1 [Example 61, 1-(Cyclobutylmethyl)-5-methyl-3-(1-methylcyclopropyl)-6-[(2-oxoimidazolidin-1-yl)methyl]thieno[2,3-d]pyrimidine-2,4(1H,3H)-dione] | 5.4
19 | Cc1c(CN2CCNC2=NC#N)sc2c1c(=O)n(C1CCCC1)c(=O)n2CCC(F)(F)F [Example 185, [1-{[3-Cyclopentyl-5-methyl-2,4-dioxo-1-(3,3,3-trifluoropropyl)-1,2,3,4-tetrahydrothieno[2,3-d]pyrimidin-6-yl]methyl}imidazolidin-2-ylidene]cyanamide] | 16
20 | COCCn1c(=O)n(C2(C)CCC2)c(=O)c2c(C)c(CN3CCNC(=O)C3=O)sc21 [Example 142, 6-[(2,3-Dioxopiperazin-1-yl)methyl]-1-(2-methoxyethyl)-5-methyl-3-(1-methylcyclobutyl)thieno[2,3-d]pyrimidine-2,4(1H,3H)-dione] | 460
21 | COCCn1c(=O)n(C2CC2C(F)(F)F)c(=O)c2c(C)c(Cn3nc[nH]c3=O)sc21 (racemic) [Example 297, 1-(2-Methoxyethyl)-5-methyl-6-[(5-oxo-4,5-dihydro-1H-1,2,4-triazol-1-yl)methyl]-3-[2-(trifluoromethyl)cyclopropyl]thieno[2,3-d]pyrimidine-2,4(1H,3H)-dione] | 120
22 | COCCn1c(=O)n([C@H]2C[C@H](OC)C2)c(=O)c2c(C)c(CN3CCNC(=O)C3=O)sc21 [Example 152, 6-[(2,3-Dioxopiperazin-1-yl)methyl]-3-(trans-3-methoxycyclobutyl)-1-(2-methoxyethyl)-5-methylthieno[2,3-d]pyrimidine-2,4(1H,3H)-dione] | 340
23 | CCc1c(CN2CCNC2=O)sc2c1c(=O)n(C1(C)CC1)c(=O)n2CCOC [Example 219, 5-Ethyl-1-(2-methoxyethyl)-3-(1-methylcyclopropyl)-6-[(2-oxoimidazolidin-1-yl)methyl]thieno[2,3-d]pyrimidine-2,4(1H,3H)-dione] | 400
24 | COCCn1c(=O)n(C2CC(F)(F)C2)c(=O)c2c(C)c(CN3CCNC(=O)C3=O)sc21 [Example 128, 3-(3,3-Difluorocyclobutyl)-6-[(2,3-dioxopiperazin-1-yl)methyl]-1-(2-methoxyethyl)-5-methylthieno[2,3-d]pyrimidine-2,4(1H,3H)-dione] | 36
25 | CCOCCn1c(=O)n(C2CC2)c(=O)c2c(C)c(CN3CCNC3=O)sc21 [Example 31, 3-Cyclopropyl-1-(2-ethoxyethyl)-5-methyl-6-[(2-oxoimidazolidin-1-yl)methyl]thieno[2,3-d]pyrimidine-2,4(1H,3H)-dione] | 67
26 | Cc1c(CN2CCNC2=O)sc2c1c(=O)n([C@H]1C[C@@H]1C)c(=O)n2CC1CCO1 (stereo partly drawn) [Example 282, 5-Methyl-3-[(1S,2S)-2-methylcyclopropyl]-1-(oxetan-2-ylmethyl)-6-[(2-oxoimidazoliidin-1-yl)methyl]thieno[2,3-d]pyrimidine-2,4(1H,3H)-dione] | 4.1
27 | Cc1c(Cn2nc[nH]c2=O)sc2c1c(=O)n(C1CC(C)(C)C1)c(=O)n2CCC(F)(F)F [Example 168, 3-(3,3-Dimethylcyclobutyl)-5-methyl-6-[(5-oxo-4,5-dihydro-1,2,4-triazol-1-yl)methy]-1-(3,3,3-trifluoropropyl)thieno[2,3-d]pyrimidine-2,4(1H,3H)-dione] | 16
